Source: patent US7514435B2, “Pyrrolotriazine kinase inhibitors” (Bristol-Myers Squibb Company, priority 2005, dated 2009)

What was measured:
TrkB = molecular target: T1, TrkB (Homo sapiens, UniProt Q16620); assay: TrkB tyrosine kinase inhibition, recombinant enzyme, polyGluTyr phosphorylation (33P-ATP filter assay); type: biochemical; conditions: kinase domain of human TrkB (amino acids 526-838), His-fusion; 0.1 mg/ml PGT, 30 uM ATP, 1 hour at 30° C.
T1 construct: The kinase domain of the human TrkB receptor (amino acids 526-838); His; purchased Invitrogen; host or cells: insect cells
T1 sequence (Q16620 510-822): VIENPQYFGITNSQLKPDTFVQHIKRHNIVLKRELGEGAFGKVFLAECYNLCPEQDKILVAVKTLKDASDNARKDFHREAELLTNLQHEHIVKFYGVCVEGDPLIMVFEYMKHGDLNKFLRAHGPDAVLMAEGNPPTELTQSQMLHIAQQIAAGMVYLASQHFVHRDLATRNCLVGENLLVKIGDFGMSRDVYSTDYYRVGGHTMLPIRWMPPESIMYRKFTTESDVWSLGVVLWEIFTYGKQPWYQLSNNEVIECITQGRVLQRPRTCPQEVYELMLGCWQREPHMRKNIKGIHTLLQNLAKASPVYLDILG
Description: The ability of compounds of the invention to inhibit tyrosine kinase activity of TrkB may be measured using a recombinant enzyme in an assay that measures the ability of compounds to inhibit the phosphorylation of the exogenous substrate, polyGluTyr (PGT, 4:1). The kinase domain of the human TrkB receptor (amino acids 526-838) is expressed in insect cells as a histidine (His)-fusion protein and is commercially available from Invitrogen™. The enzyme assay is performed in a 96-well plate. Test compounds are first dissolved in dimethylsulfoxide (DMSO) and then serially-diluted in a 96-well plate. The serially-diluted compounds are transferred to the 96-well assay plate so that the final concentration of DMSO in the enzyme assay is 1.64%. All assay components are diluted in phosphorylation buffer (20 mm MOPS, 10 mM MgCl2, 1 mM EDTA, 0.015% Brij-35, 0.1 mg/ml BSA, 0.0025% Beta-Mercaptoethanol). The recombinant enzyme is added to the assay plate containing test compound and the reaction is initiated with a substrate solution containing a final concentration of 0.1 mg/ml PGT, 30 uM ATP, and 0.008 mCi/ml ^33P-gammaATP (3000 Ci/mmol)(Perkin Elmer™) After a 1 hour incubation at 30° C., the reaction is terminated with 10% TCA and incubated at 4° C. for 1 hour. The reaction is filtered onto a Unifilter® GF/C™ filter plate that has been presoaked with 0.1 M NaPyrophosphate. Microscint-20 is then added to the dried filter plate and the captured ^33P-phosphorylated PGT is quantitated on a microscintillation plate counter (TopCount·NXT™).

TrkA = molecular target: T2, TrkA (Homo sapiens, UniProt P04629); assay: TrkA tyrosine kinase inhibition, recombinant enzyme, polyGluTyr phosphorylation (33P-ATP filter assay); type: biochemical; conditions: kinase domain of human TrkA, His-fusion; 0.1 mg/ml PGT, 30 uM ATP, 1 hour at 30° C.
T2 construct: The kinase domain of the human TrkA receptor is expressed in Sf9 insect cells as a histidine (His)-fusion protein; His; made in house; host or cells: Sf9 insect cells (baculovirus)
T2 sequence (P04629 510-781 limits assumed): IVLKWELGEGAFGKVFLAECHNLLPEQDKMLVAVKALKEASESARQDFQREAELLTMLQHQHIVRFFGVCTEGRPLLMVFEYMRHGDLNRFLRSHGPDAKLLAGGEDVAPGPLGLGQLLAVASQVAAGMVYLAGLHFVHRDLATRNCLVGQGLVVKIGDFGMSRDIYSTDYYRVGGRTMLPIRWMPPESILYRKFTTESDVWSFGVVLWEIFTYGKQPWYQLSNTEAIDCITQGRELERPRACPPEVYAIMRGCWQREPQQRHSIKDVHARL
Description: The ability of compounds of the invention to inhibit tyrosine kinase activity of TrkA may be measured using a recombinant enzyme in an assay that measures the ability of compounds to inhibit the phosphorylation of the exogenous substrate, polyGluTyr (PGT, 4:1). The kinase domain of the human TrkA receptor is expressed in Sf9 insect cells as a histidine (His)-fusion protein using a baculovirus expression system. The protein is purified from the lysates of these cells using an Ni-NTA affinity column. After the recombinant enzyme is purified, it is activated by incubation with cold ATP. The enzyme assay is performed in a 96-well plate. Test compounds are first dissolved in dimethylsulfoxide (DMSO) and then serially-diluted in a 96-well plate. The serially-diluted compounds are transferred to the 96-well assay plate so that the final concentration of DMSO in the enzyme assay is 1.64%. All assay components are diluted in phosphorylation buffer (20 mm MOPS, 10 mM MgCl2, 1 mM EDTA, 0.015% Brij-35, 0.1 mg/ml BSA, 0.0025% Beta-Mercaptoethanol). The recombinant enzyme is added to the assay plate containing test compound and the reaction is initiated with a substrate solution containing a final concentration of 0.1 mg/ml PGT, 30 uM ATP, and 0.008 mCi/ml ^33P-gammaATP (3000 Ci/mmol). After a 1 hour incubation at 30° C., the reaction is terminated with 10% TCA and incubated at 4° C. for 1 hour. The reaction is filtered onto a Unifilter® GF/C™ filter plate that has been presoaked with 0.1 M NaPyrophosphate. Microscint-20 is then added to the dried filter plate and the captured ^33P-phosphorylated PGT is quantitated on a microscintillation plate counter (TopCount·NXT™).

Row | SMILES | IC50 (TrkB) | IC50 (TrkA)
1 | CC(C)c1cc(C(=O)c2cccc(NC(=O)NCC3CCCCC3)c2)c2c(N)ncnn12 [Example 37, 1-{3-[(4-amino-7-isopropyl-pyrrolo[2,1-f][1,2,4]triazin-5-yl)carbonyl]phenyl}-3-(cyclohexylmethyl)urea] | 36 nM | 17 nM
2 | CC(C)c1cc(C(=O)c2cccc(NC(=O)NCCCc3ccccc3)c2)c2c(N)ncnn12 [Example 61, 1-{3-[(4-amino-7-isopropyl-pyrrolo[2,1-f][1,2,4]triazin-5-yl)carbonyl]phenyl}-3-(3-phenylpropyl)urea] | 8 nM | 21 nM
3 | CC(C)c1cc(C(=O)c2cccc(NC(=O)Nc3ccncc3)c2)c2c(N)ncnn12 [Example 63, 1-{3-[(4-amino-7-isopropyl-pyrrolo[2,1-f][1,2,4]triazin-5-yl)carbonyl]phenyl}-3-pyridin-4-ylurea] | 15 nM | 9 nM
4 | CC(C)c1cc(C(=O)c2cccc(NC(=O)Nc3ccc4ccccc4c3)c2)c2c(N)ncnn12 [Example 46, 1-{3-[(4-amino-7-isopropyl-pyrrolo[2,1-f][1,2,4]triazin-5-yl)carbonyl]phenyl}-3-(2-naphthyl)urea] | 1 nM | < 1 nM

Now from value to molecule:

Row | IC50 (TrkB) | IC50 (TrkA) | SMILES
5 | 1 nM | 2 nM | CC(C)c1cc(C(=O)c2cccc(NC(=O)Nc3ccc(OCc4ccccc4)cc3)c2)c2c(N)ncnn12 [Example 33, 1-{3-[(4-amino-7-isopropyl-pyrrolo[2,1-f][1,2,4]triazin-5-yl)carbonyl]phenyl}-3-[4-(benzyloxy)phenyl]urea]
6 | < 1 nM | 2 nM | CC(C)c1cc(C(=O)c2cccc(NC(=O)Nc3ccccc3)c2)c2c(N)ncnn12 [Example 9, 1-{3-[(4-amino-7-isopropyl-pyrrolo[2,1-f][1,2,4]triazin-5-yl)carbonyl]phenyl}-3-phenylurea]
7 | 1 nM | – | CC(C)c1cc(C(=O)c2cccc(NC(=O)Nc3ccc(Cl)cc3Cl)c2)c2c(N)ncnn12 [Example 1, 1-{3-[(4-amino-7-isopropylpyrrolo [2,1-f][1,2,4]triazin-5-yl)carbonyl]phenyl}-3-(2,4-dichlorophenyl)urea]
8 | 1 nM | 3 nM | CN(C)CCCc1cc(C(=O)c2cccc(NC(=O)Nc3ccc(Cl)cc3Cl)c2)c2c(N)ncnn12 [Example 67, 1-[3-({4-amino-7-[3-(dimethylamino)propyl]Pyrrolo[2,1-f][1,2,4]triazin-5-yl}carbonyl)phenyl]-3-(2,4-dichlorophenyl)urea]
